# Values quoted from earlier work as cited in patent publication US20210130806A1, “ENGINEERED BACTERIA EXPRESSING RACEMASE FOR TREATING DISEASES ASSOCIATED WITH HYPERAMMONEMIA” (Synlogic Operating Company, Inc., priority 2017, published 2021).
# How the values were obtained:
# [1] = system: hepatic encephalopathy; details: compared with placebo, over a 6-month period
# [2] = system: E. coli; details: in vitro and in clinical studies
compound,measurement,setting,value
CO[C@H]1/C=C/O[C@@]2(C)Oc3c(C)c(O)c4c(O)c(c5c(nc6cc(C)ccn65)c4c3C2=O)NC(=O)/C(C)=C\C=C\[C@H](C)[C@H](O)[C@@H](C)[C@@H](O)[C@@H](C)[C@H](OC(C)=O)[C@@H]1C [Rifaximin],risk of an episode of hepatic encephalopathy,[1],significantly reduce
same,activity against E. coli,[2],active
